The text below walks through data of patent US11396504B2, “Alkoxybenzo-five-membered (six-membered) heterocyclic amine compound and pharmaceutical use thereof” (FUDAN UNIVERSITY, priority 2018, dated 2022).

Assay [1] has as its target T1, Sphingomyelin Synthase 1 (SMS1 pure enzyme) (Homo sapiens, UniProt Q86VZ5).
T1 construct: Yu, Cao research group of National Protein Science Center (Shanghai)
T1 sequence (Q86VZ5 1-413): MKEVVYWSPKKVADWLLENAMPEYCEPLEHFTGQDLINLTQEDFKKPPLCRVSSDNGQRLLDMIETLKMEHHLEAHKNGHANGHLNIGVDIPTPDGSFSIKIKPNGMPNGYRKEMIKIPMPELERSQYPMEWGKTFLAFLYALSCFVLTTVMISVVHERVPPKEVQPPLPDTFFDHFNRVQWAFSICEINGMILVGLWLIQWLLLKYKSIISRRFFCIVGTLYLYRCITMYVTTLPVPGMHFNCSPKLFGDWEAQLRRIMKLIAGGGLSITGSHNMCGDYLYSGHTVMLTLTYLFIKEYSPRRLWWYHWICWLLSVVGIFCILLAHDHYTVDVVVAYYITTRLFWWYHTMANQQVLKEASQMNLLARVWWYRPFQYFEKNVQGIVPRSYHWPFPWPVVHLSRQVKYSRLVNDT
Description: In vitro SMS1 pure enzyme inhibition, HPLC fluorogenic quantitative detecting method. It is filed as biochemical. An excerpt:
Referring to the above SMS2 inhibitory activity detection method, and using SMS1 pure enzyme instead of SMS2 pure enzyme for corresponding operation.
(§1) Using the same HPLC fluorogenic quantitative detecting method as reference (Xiaodong Deng; Hong Sun; et al. Analytical Letters, 2012, 45:12, 1581-1589) to analyses samples obtained above. Analysize and record peak areas of C6-NBD-SM (Asm) and C6-NBD-Ceramide (Acer) of each sample from blank group, positive control group (compound D2) and under tested compound group. Calculate inhibition rate from the formula below: […]
Part 4. Determination of SMS1 Median Inhibitory Concentration (IC50) and SMS1 Single Concentration (50 μM) Inhibitory Concentration of Alkoxybenzeno Five- or Six-Member Heterocyclic Amines (Scheme I-1˜I-38)
The experiment can be carried out with the corresponding concentration according to the operation similar to the determination of the median inhibitory concentration (IC50) of SMS2.

Assay [2] concerns the target T2, Sphingomyelin Synthase 2 (SMS2 pure enzyme) (Homo sapiens, UniProt Q8NHU3).
T2 construct: Yu, Cao research group of National Protein Science Center (Shanghai)
T2 sequence (Q8NHU3 1-365): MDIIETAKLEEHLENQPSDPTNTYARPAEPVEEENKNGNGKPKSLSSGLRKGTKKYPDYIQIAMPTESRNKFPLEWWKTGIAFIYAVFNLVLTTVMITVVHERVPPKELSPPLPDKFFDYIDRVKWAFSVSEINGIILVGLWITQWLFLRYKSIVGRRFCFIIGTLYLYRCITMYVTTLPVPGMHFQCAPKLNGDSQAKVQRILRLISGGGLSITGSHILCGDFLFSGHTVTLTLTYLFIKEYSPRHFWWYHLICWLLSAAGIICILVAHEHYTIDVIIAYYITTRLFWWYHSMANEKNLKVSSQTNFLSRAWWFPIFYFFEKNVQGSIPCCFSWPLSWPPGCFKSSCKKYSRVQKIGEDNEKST
The experiment in a line: In vitro SMS2 pure enzyme inhibition, HPLC fluorogenic quantitative detecting method (C6-NBD-Ceramide to C6-NBD-SM). The settings on record: for Selectivity ratio: SMS1 IC50 relative to SMS2 IC50; for IC50: SMS2 pure enzyme, five concentrations, three parallel groups, experimental value. The assay is classed as biochemical. On the procedure: Add […] SMS2 pure enzyme DDM solution (total protein content 1.5 μg/μL), 1 μL test compound in DMSO solution or blank DMSO solution, 79.7 μL DDM buffer to 1.5 mL Eppendorf tube, vortex 30 seconds, let stand at room temperature for 5 min. Then add 20 μL DDM buffer containing 1 μL DMPC in ethanol (40 mmol/L) and 1 μL C6-NBD-Ceramide in DMSO (1.16 mmol/L). After vortexing for 30 seconds, Incubate for 0.5 h under water bath at 37° C. Then remove, add 200 μL of absolute ethanol, and vortex for 30 seconds. Take out 200 μL of the mixture and store it at 4° C. for high performance liquid chromatography analysis.
as §1
The DMSO stock solution of under tested compound (6 mM) was diluted stepwise into five concentration gradient. 1 μL solution of each concentration was added into the trial system to prepare samples with the method mentioned in the first step of application case 15. The Asm values of the five concentration solution of tested compound were measured (compound D2 is a positive control), and the inhibition rate under the five concentration were calculated and fitted to obtain median inhibitory concentration (IC50). Each compound was measured three parallel groups. SMS2 median inhibitory concentration and SMS1 single inhibitory concentration (50 μM) of Scheme I-1˜I-38, and SMS1 median inhibitory concentration of some compounds are listed below in Table 1.

For `CCc1ccccc1COc1cccc2onc(Nc3cccnc3)c12` [Scheme I-1, 4-((2-ethylbenzyl)oxy)-N-(pyridin-3-yl)benzo[d]isoxazol-3-amine], the IC50 (as a rule, the concentration that gives 50% inhibition) in assay [1] stood at 40000 nM. Besides, the inhibition (usually the relative decrease from the control value, in per cent) at 50 µM in assay [1] (single concentration 50 μM) is 65%. For the same molecule, in assay [2], the Selectivity ratio came out at 342 and the IC50 came out at 117 nM.

The molecule `Fc1ccc(Cl)c(COc2cccc3onc(Nc4cccnc4)c23)c1` [Scheme I-2, 4-((2-Chloro-5-fluorobenzyl)oxy)-N-(pyridin-3-yl)benzo[d]-isoxazol-3-amine] registered an IC50 in assay [1] of 55000 nM. Besides, in assay [1] (single concentration 50 μM), the inhibition at 50 µM came to 44%. In addition, in assay [2], the Selectivity ratio is given as 539 and half-maximal inhibition (IC50) required 102 nM.

As to `FC(F)(F)Oc1ccc(Cl)cc1COc1cccc2onc(Nc3cccnc3)c12` [Scheme I-3, 4-((5-chloro-2-(trifluoromethoxy)benzyl)oxy)-N-(pyridin-3-yl)benzo[d]isoxazol-3-amine], the inhibition at 50 µM in assay [1] (single concentration 50 μM) is 49%. Also, the IC50 in assay [2] stood at 2000 nM.

For the molecule `Fc1ccccc1COc1cccc2onc(Nc3cccnc3)c12` [Scheme I-4, 4-((2-fluorobenzyl)oxy)-N-(pyridin-3-yl)benzo[d]isoxazol-3-amine], in assay [1] (single concentration 50 μM), the inhibition at 50 µM worked out at 6%. This molecule showed an IC50 in assay [2] of 660 nM.

`Fc1cccc(COc2cccc3onc(Nc4cccnc4)c23)c1` [Scheme I-5, 4-((3-fluorobenzyl)oxy)-N-(pyridin-3-yl)benzo[d]isoxazol-3-amine]: the inhibition at 50 µM in assay [1] (single concentration 50 μM) amounted to 6%. The IC50 in assay [2] was determined as 156 nM.

In the case of `Fc1ccc(COc2cccc3onc(Nc4cccnc4)c23)cc1` [Scheme I-6, 4-((4-fluorobenzyl)oxy)-N-(pyridin-3-yl)benzo[d]isoxazol-3-amine], the inhibition at 50 µM in assay [1] (single concentration 50 μM) amounted to 7%. The midpoint of inhibition in assay [2], the IC50, lay at 1520 nM.

In assay [1], `Clc1ccccc1COc1cccc2onc(Nc3cccnc3)c12` [Scheme I-7, 4-((2-chlorobenzyl)oxy)-N-(pyridin-3-yl)benzo[d]isoxazol-3-amine] had a half-inhibitory concentration (IC50) of 79000 nM. For the same molecule, in assay [1] (single concentration 50 μM), the “SMS1 Inhibition (50 μM)” value came out at 41%. In addition, in assay [2], the Selectivity ratio came out at 292 and the IC50 worked out at 270 nM.

`Clc1cccc(COc2cccc3onc(Nc4cccnc4)c23)c1` [Scheme I-8, 4-((3-chlorobenzyl)oxy)-N-(pyridin-3-yl)benzo[d]isoxazol-3-amine] gave an IC50 in assay [1] of 79000 nM. Also, the inhibition at 50 µM in assay [1] (single concentration 50 μM) was 44%. In assay [2], the Selectivity ratio is given as 840 and half-maximal inhibition (IC50) required 94 nM.

Turning to `Clc1ccc(COc2cccc3onc(Nc4cccnc4)c23)cc1` [Scheme I-9, 4-((4-chlorobenzyl)oxy)-N-(pyridin-3-yl)benzo[d]isoxazol-3-amine], the inhibition at 50 µM in assay [1] (single concentration 50 μM) was determined as 5%. For the same molecule, the half-inhibitory concentration (IC50) in assay [2] is > 10000 nM.

`Cc1ccccc1COc1cccc2onc(Nc3cccnc3)c12` [Scheme I-10, 4-((2-methylbenzyl)oxy)-N-(pyridin-3-yl)benzo[d]isoxazol-3-amine]: in assay [1], the midpoint of inhibition, the IC50, lay at 70000 nM. Also, in assay [1] (single concentration 50 μM), the inhibition at 50 µM came out at 41%. In addition, in assay [2], the Selectivity ratio amounted to 140 and the IC50 was found to be 498 nM.

In the case of `Cc1cccc(COc2cccc3onc(Nc4cccnc4)c23)c1` [Scheme I-11, 4-((3-methylbenzyl)oxy)-N-(pyridin-3-yl)benzo[d]isoxazol-3-amine], the inhibition at 50 µM in assay [1] (single concentration 50 μM) stood at 20%. The same molecule returned an IC50 in assay [2] of 190 nM.

Take `Cc1ccc(COc2cccc3onc(Nc4cccnc4)c23)cc1` [Scheme I-12, 4-((4-methylbenzyl)oxy)-N-(pyridin-3-yl)benzo[d]isoxazol-3-amine]: the inhibition at 50 µM in assay [1] (single concentration 50 μM) was determined as 5%.

Regarding `FC(F)(F)c1ccccc1COc1cccc2onc(Nc3cccnc3)c12` [Scheme I-13, 4-((2-Trifluoromethylbenzyl)oxy)-N-(pyridin-3-yl)benzo[d]isoxazole-3-amine], the inhibition at 50 µM in assay [1] (single concentration 50 μM) worked out at 21%. This molecule showed an IC50 in assay [2] of 255 nM.

With `FC(F)(F)c1cccc(COc2cccc3onc(Nc4cccnc4)c23)c1` [Scheme I-14, 4-((3-Trifluoromethylbenzyl)oxy)-N-(pyridin-3-yl)benzo[d]isoxazole-3-amine], the inhibition at 50 µM in assay [1] (single concentration 50 μM) came to 25%. Also, the IC50 in assay [2] came to 486 nM.

In the case of `FC(F)(F)c1ccc(COc2cccc3onc(Nc4cccnc4)c23)cc1` [Scheme I-15, 4-((4-Trifluoromethylbenzyl)oxy)-N-(pyridin-3-yl)benzo[d]isoxazole-3-amine], the inhibition at 50 µM in assay [1] (single concentration 50 μM) was found to be 9%. Further, in assay [2], the IC50 is > 10000 nM.

With `COc1ccccc1COc1cccc2onc(Nc3cccnc3)c12` [Scheme I-16, 4-((2-Methoxybenzyl)oxy)-N-(pyridin-3-yl)benzo[d]isoxazol-3-amine], half-maximal inhibition in assay [1] (IC50) was put at 48000 nM. In addition, in assay [1] (single concentration 50 μM), the inhibition at 50 µM worked out at 49%. In addition, in assay [2], the Selectivity ratio was found to be 201 and the IC50 was 239 nM.

For `COc1cccc(COc2cccc3onc(Nc4cccnc4)c23)c1` [Scheme I-17, 4-((3-Methoxybenzyl)oxy)-N-(pyridin-3-yl)benzo[d]isoxazol-3-amine], the inhibition at 50 µM in assay [1] (single concentration 50 μM) stood at 17%. The same molecule gave an IC50 in assay [2] of 523 nM.

Take `COc1ccc(COc2cccc3onc(Nc4cccnc4)c23)cc1` [Scheme I-18, 4-((4-Methoxybenzyl)oxy)-N-(pyridin-3-yl)benzo[d]isoxazol-3-amine]: the inhibition at 50 µM in assay [1] (single concentration 50 μM) is -5%.

In turn, `FC(F)(F)Oc1ccccc1COc1cccc2onc(Nc3cccnc3)c12` [Scheme I-19, 4-((2-Trifluoromethoxybenzyl)oxy)-N-(pyridin-3-yl)benzo[d]-isoxazol-3-amine] showed an IC50 in assay [1] of 67000 nM. Also, in assay [1] (single concentration 50 μM), the inhibition at 50 µM amounted to 59%. Besides, in assay [2], the Selectivity ratio came out at 726 and the IC50 came to 107 nM.

Consider `N#Cc1ccc(COc2cccc3onc(Nc4cccnc4)c23)cc1` [Scheme I-24, 4-((4-Cyanobenzyl)oxy)-N-(pyridin-3-yl)benzo[d]isoxazol-3-amine], for which the inhibition at 50 µM in assay [1] (single concentration 50 μM) was -18%.

On to `CN(c1cccnc1)c1noc2cccc(OCc3c(Cl)cccc3Cl)c12` [Scheme I-28, 4-((2,6-dichlorobenzyl)oxy)-N-methyl-N-(pyridin-3-yl)benzo[d]isoxazol-3-amine], for which the inhibition at 50 µM in assay [1] (single concentration 50 μM) is 29%.

With `c1ccc(COc2cccc3[nH]nc(Nc4cccnc4)c23)cc1` [Scheme I-29, 4-(benzyloxy)-N-(pyridin-3-yl)-1H-indazol-3-amine], the inhibition at 50 µM in assay [1] (single concentration 50 μM) is -7%.

As for `Cn1nc(Nc2cccnc2)c2c(OCc3ccccc3)cccc21` [Scheme I-30, 4-(benzyloxy)-1-methyl-N-(pyridin-3-yl)-1H-indazol-3-amine], in assay [1] (single concentration 50 μM), the inhibition at 50 µM was found to be 1%.

Turning to `c1ccc(COc2cccc3ccnc(Nc4cccnc4)c23)cc1` [Scheme I-32, 8-(benzyloxy)-N-(pyridin-3-yl)isoquinolin-1-amine], in assay [1] (single concentration 50 μM), the inhibition at 50 µM came out at 18%.

On to `CN(C)CC(=O)Nc1noc2cccc(OCc3cc(F)ccc3Cl)c12` [Scheme I-34, N-(4-((2-chloro-5-fluorobenzyl)oxy)benzo[d]isoxazol-3-yl)-2-(dimethylamino)acetamide], for which the inhibition at 50 µM in assay [1] (single concentration 50 μM) was 3%.

On to `CC(C)(C)OC(=O)N1CCC(CCCOc2cccc3onc(Nc4cccnc4)c23)CC1` [Scheme I-40, Tert-Butyl 4-(3-((3-(pyridin-3-ylamino)benzo[d]isoxazol-4-yl)oxy)propyl)piperidine-1-carboxylate], for which, in assay [1] (single concentration 50 μM), the inhibition at 50 µM came out at 9%.
